Assay results published in the supplement of paper PMC10307832.

What was measured:
Idelalisib + Palbociclib = compound: CC[C@H](Nc1ncnc2[nH]cnc12)c1nc2cccc(F)c2c(=O)n1-c1ccccc1 [Idelalisib] + CC(=O)c1c(C)c2cnc(Nc3ccc(N4CCNCC4)cn3)nc2n(C2CCCC2)c1=O [Palbociclib] (partner 0.5 µM); test: relative viability (nuclei count vs DMSO), 5 days (fraction); higher = more cells survive
Procedure, shortened: (§1)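 Values are medians from duplicate plates. Each reflects relative viability, defined as the nuclei count of treated wells over that of vehicle wells. Lung cancer cell lines in 1536-well plates were pin-tool dosed one day after seeding with one drug alone or with a fixed anchor-drug dose plus five library-drug doses (not always all listed) in √10 steps, then fixed, stained and imaged at 4× after 5 days.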

Idelalisib + Pemetrexed = compound: CC[C@H](Nc1ncnc2[nH]cnc12)c1nc2cccc(F)c2c(=O)n1-c1ccccc1 [Idelalisib] + Nc1nc2[nH]cc(CCc3ccc(C(=O)N[C@@H](CCC(=O)O)C(=O)O)cc3)c2c(=O)[nH]1 [Pemetrexed] (partner 0.2 µM); test: as above
Procedure, shortened: as §1

Cell Line	relative viability (Idelalisib + Palbociclib; first compound 0.04 µM)	relative viability (Idelalisib + Palbociclib; first compound 0.1265 µM)	relative viability (Idelalisib + Palbociclib; first compound 0.4 µM)	relative viability (Idelalisib + Palbociclib; first compound 1.265 µM)	relative viability (Idelalisib + Palbociclib; first compound 4 µM)	relative viability (Idelalisib + Pemetrexed; first compound 0.04 µM)	relative viability (Idelalisib + Pemetrexed; first compound 0.1265 µM)	relative viability (Idelalisib + Pemetrexed; first compound 0.4 µM)	relative viability (Idelalisib + Pemetrexed; first compound 1.265 µM)	relative viability (Idelalisib + Pemetrexed; first compound 4 µM)
NCI-H650	0.327	0.314	0.309	0.312	0.296	0.983	0.995	0.923	0.77	0.92
A-427	0.558	0.542	0.491	0.559	0.505	1.11	1	0.925	0.998	0.955
NCI-H2347	0.48	0.453	0.445	0.42	0.286	0.436	0.423	0.436	0.452	0.402
NCI-H1793	0.331	0.27	–	0.298	0.26	0.821	0.95	–	0.81	0.627
NCI-H1651	0.518	0.524	0.489	0.522	0.442	0.634	0.355	0.537	0.522	0.59
HCC-78	0.443	0.446	0.411	0.466	0.352	0.664	0.956	0.87	0.86	0.935
NCI-H23	0.51	0.467	0.441	0.501	0.521	0.64	0.619	0.422	0.53	0.509
LOU-NH91	0.548	0.545	0.629	0.544	0.547	0.369	0.414	0.392	0.408	0.408
LXF-289	0.592	0.667	0.601	0.687	0.627	0.921	0.933	0.864	0.965	0.94
NCI-H460	0.145	0.286	0.175	0.121	0.103	0.0676	0.0589	0.0612	0.0657	0.0587
NCI-H1792	0.632	0.668	0.557	0.668	0.55	0.707	1.09	0.45	0.823	0.631
EMC-BAC-2	0.546	0.502	0.489	0.522	0.482	0.484	0.44	0.477	0.435	0.43
CAL-12T	0.836	0.525	0.448	0.615	0.414	1.34	0.925	1.22	1.21	1.23
ChaGo-K-1	0.972	0.928	0.987	0.904	0.901	0.254	0.252	0.268	0.254	0.264
COR-L 105	0.431	0.42	0.353	0.424	0.433	1.18	1.1	0.913	1.06	0.924
NCI-H1944	0.36	0.315	0.297	0.292	0.283	0.724	0.58	0.516	0.484	0.586
NCI-H2009	0.259	0.224	0.176	0.202	0.13	0.99	0.996	1.03	1.09	0.991

Cell Line	relative viability (Idelalisib + Palbociclib; first compound 0.04 µM)	relative viability (Idelalisib + Palbociclib; first compound 0.1265 µM)	relative viability (Idelalisib + Palbociclib; first compound 0.4 µM)	relative viability (Idelalisib + Palbociclib; first compound 1.265 µM)	relative viability (Idelalisib + Palbociclib; first compound 4 µM)	relative viability (Idelalisib + Pemetrexed; first compound 0.04 µM)	relative viability (Idelalisib + Pemetrexed; first compound 0.1265 µM)	relative viability (Idelalisib + Pemetrexed; first compound 0.4 µM)	relative viability (Idelalisib + Pemetrexed; first compound 1.265 µM)	relative viability (Idelalisib + Pemetrexed; first compound 4 µM)
SW 900	0.493	0.543	0.397	0.531	0.407	0.493	0.488	0.476	0.509	0.406
NCI-H441	0.231	0.155	–	0.23	0.182	0.247	0.233	–	0.285	0.251
NCI-H1437	0.334	0.413	0.318	0.361	0.325	0.34	0.315	0.311	0.317	0.268
PC-14	0.539	0.511	0.439	0.561	0.415	0.15	0.126	0.148	0.142	0.135
LCLC-103H	0.515	0.421	0.472	0.472	0.451	0.508	0.456	0.471	0.505	0.477
COR-L23	0.314	0.299	0.239	0.315	0.281	0.186	0.203	0.199	0.204	0.182
H3255	0.33	0.297	0.287	0.35	0.338	0.692	0.551	0.55	0.561	0.488
NCI-H2126	0.364	0.369	0.366	0.327	0.358	0.848	0.739	0.523	0.769	0.619
HCC-366	0.35	0.384	0.39	0.393	0.353	0.178	0.163	0.214	0.138	0.21
LU99A	0.41	0.424	0.357	0.429	0.39	0.174	0.153	0.189	0.149	0.19
HOP-62	0.441	0.468	0.411	0.468	0.328	0.353	0.331	0.284	0.278	0.248
HCC-15	0.815	0.73	0.633	0.832	0.598	0.242	0.22	0.213	0.22	0.221
HARA	0.334	0.223	0.261	0.238	0.225	0.24	0.243	–	0.222	0.247
SK-MES-1	0.296	0.311	0.299	0.315	0.288	0.993	0.997	0.878	0.433	0.909
NCI-H1355	0.415	0.407	0.333	0.364	0.312	1.03	1.04	0.926	1.09	1.01
NCI-H727	0.7	0.566	0.648	0.786	0.619	–	–	–	–	–
NCI-H520	0.24	0.184	0.193	0.185	0.156	0.75	0.595	0.567	0.637	0.451
